According to US8017633B2, “Roflumilast for the treatment of diabetes mellitus” (Nycomed GmbH, priority 2005, dated 2011):

Experiments:
C57BLKS db/db mice [1] = experiment: Daily food intake of db/db mice during once-daily oral treatment; assay type: in vivo, mouse; conditions: for Daily food intake on the days of application: 30 mg/kg oral once daily
Experimental: (§1) Female C57BLKS db/db mice obtained from M&B A/S (8680 Ry, Denmark) were used in the studies at 10 to 11 weeks of age. Mice were housed 10 per cage and allowed free access to water and standard laboratory diet for rodents (chow 3433, Provimi Kliba SA, 4303 Kaiseraugst, Switzerland).
(§2) Mice were treated with vehicle, Roflumilast or Roflumilast-N-Oxide, respectively once daily in the morning. Roflumilast or Roflumilast-N-Oxide was suspended in 4% methocel and applied via oral gavage using oral feeding & dosing needles (outer diameter: 1.5 mm, TSE GmbH, 61350 Bad Homburg, Germany). A volume of 10 ml/kg body weight was administered for each dose.
(§3) The daily intake of food (chow 3433) and water was measured per animal (total daily intake of food divided by the number of animals) before and during the treatment with Roflumilast or Roflumilast-N-Oxide.

C57BLKS db/db mice [2] = experiment: Daily water intake of db/db mice during once-daily oral treatment; assay type: in vivo, mouse
Experimental: as §1, §2, §3

[3] = db/db mice, treatment once daily oral

O=C(Nc1c(Cl)c[n+]([O-])cc1Cl)c1ccc(OC(F)F)c(OCC2CC2)c1 [Rof-N-Oxide, 3-cyclopropylmethoxy-4-difluoromethoxy-N-(3,5-dichloro-1-oxido-pyridin-4-yl)benzamide]
Daily food intake on the days of application (C57BLKS db/db mice [1]; Day 3): 1.2 g per mouse
Daily food intake on the days of application (C57BLKS db/db mice [1]; Day 4): 0.8 g per mouse
Daily food intake on the days of application (C57BLKS db/db mice [1]; Day 5): 0.9 g per mouse
Daily food intake on the days of application (C57BLKS db/db mice [1]; Day 6): 1.1 g per mouse
Daily food intake on the days of application (C57BLKS db/db mice [1]; Day 7): 0.7 g per mouse
Daily food intake on the days of application (C57BLKS db/db mice [1]; Day 8): 0.6 g per mouse
Effect on daily food intake (summary in words) (C57BLKS db/db mice [1]; [3]): reduce in a dose-dependent manner
Daily water intake before the first application (C57BLKS db/db mice [2]; 1 mg/kg group, Day −1, before first application): 8.6 g per mouse
Daily water intake before the first application (C57BLKS db/db mice [2]; 1 mg/kg group, Day −2, before first application): 7.9 g per mouse
Daily water intake before the first application (C57BLKS db/db mice [2]; 1 mg/kg group, Day −3, before first application): 8.4 g per mouse
Daily water intake before the first application (C57BLKS db/db mice [2]; 1 mg/kg group, Day −4, before first application): 9.4 g per mouse
Daily water intake before the first application (C57BLKS db/db mice [2]; 1 mg/kg group, Day −5, before first application): 9.2 g per mouse
Daily water intake on the days of application (C57BLKS db/db mice [2]; 1 mg/kg oral once daily, Day 1): 7.6 g per mouse
Daily water intake on the days of application (C57BLKS db/db mice [2]; 1 mg/kg oral once daily, Day 2): 6.9 g per mouse
Daily water intake on the days of application (C57BLKS db/db mice [2]; 1 mg/kg oral once daily, Day 4): 7.1 g per mouse
Daily water intake on the days of application (C57BLKS db/db mice [2]; 1 mg/kg oral once daily, Day 5): 8.0 g per mouse
Daily water intake on the days of application (C57BLKS db/db mice [2]; 1 mg/kg oral once daily, Day 6): 7.7 g per mouse
Daily water intake on the days of application (C57BLKS db/db mice [2]; 1 mg/kg oral once daily, Day 7): 8.5 g per mouse
Daily water intake on the days of application (C57BLKS db/db mice [2]; 1 mg/kg oral once daily, Day 8): 7.2 g per mouse
Daily water intake before the first application (C57BLKS db/db mice [2]; 3 mg/kg group, Day −1, before first application): 9.1 g per mouse
Daily water intake before the first application (C57BLKS db/db mice [2]; 3 mg/kg group, Day −2, before first application): 7.6 g per mouse
Daily water intake before the first application (C57BLKS db/db mice [2]; 3 mg/kg group, Day −3, before first application): 7.6 g per mouse
Daily water intake before the first application (C57BLKS db/db mice [2]; 3 mg/kg group, Day −4, before first application): 4.3 g per mouse
Daily water intake before the first application (C57BLKS db/db mice [2]; 3 mg/kg group, Day −5, before first application): 9.8 g per mouse
Daily water intake on the days of application (C57BLKS db/db mice [2]; 3 mg/kg oral once daily, Day 1): 5.1 g per mouse
Daily water intake on the days of application (C57BLKS db/db mice [2]; 3 mg/kg oral once daily, Day 2): 5.9 g per mouse
Daily water intake on the days of application (C57BLKS db/db mice [2]; 3 mg/kg oral once daily, Day 4): 5.9 g per mouse
Daily water intake on the days of application (C57BLKS db/db mice [2]; 3 mg/kg oral once daily, Day 5): 5.7 g per mouse
Daily water intake on the days of application (C57BLKS db/db mice [2]; 3 mg/kg oral once daily, Day 6): 5.4 g per mouse
Daily water intake on the days of application (C57BLKS db/db mice [2]; 3 mg/kg oral once daily, Day 7): 5.4 g per mouse
Daily water intake on the days of application (C57BLKS db/db mice [2]; 3 mg/kg oral once daily, Day 8): 5.2 g per mouse
Daily water intake before the first application (C57BLKS db/db mice [2]; 10 mg/kg group, Day −1, before first application): 9.6 g per mouse
Daily water intake before the first application (C57BLKS db/db mice [2]; 10 mg/kg group, Day −2, before first application): 8.2 g per mouse
Daily water intake before the first application (C57BLKS db/db mice [2]; 10 mg/kg group, Day −3, before first application): 7.9 g per mouse
Daily water intake before the first application (C57BLKS db/db mice [2]; 10 mg/kg group, Day −4, before first application): 9.6 g per mouse
Daily water intake before the first application (C57BLKS db/db mice [2]; 10 mg/kg group, Day −5, before first application): 12.1 g per mouse
Daily water intake on the days of application (C57BLKS db/db mice [2]; 10 mg/kg oral once daily, Day 1): 2.9 g per mouse
Daily water intake on the days of application (C57BLKS db/db mice [2]; 10 mg/kg oral once daily, Day 2): 3.5 g per mouse
Daily water intake on the days of application (C57BLKS db/db mice [2]; 10 mg/kg oral once daily, Day 4): 3.2 g per mouse
Daily water intake on the days of application (C57BLKS db/db mice [2]; 10 mg/kg oral once daily, Day 5): 3.7 g per mouse
Daily water intake on the days of application (C57BLKS db/db mice [2]; 10 mg/kg oral once daily, Day 6): 3.3 g per mouse
Daily water intake on the days of application (C57BLKS db/db mice [2]; 10 mg/kg oral once daily, Day 7): 3.0 g per mouse
Daily water intake on the days of application (C57BLKS db/db mice [2]; 10 mg/kg oral once daily, Day 8): 4.1 g per mouse
Daily water intake before the first application (C57BLKS db/db mice [2]; 30 mg/kg group, Day −1, before first application): 10.1 g per mouse
Daily water intake before the first application (C57BLKS db/db mice [2]; 30 mg/kg group, Day −2, before first application): 9.4 g per mouse
Daily water intake before the first application (C57BLKS db/db mice [2]; 30 mg/kg group, Day −3, before first application): 10.0 g per mouse
Daily water intake before the first application (C57BLKS db/db mice [2]; 30 mg/kg group, Day −4, before first application): 12.4 g per mouse
Daily water intake before the first application (C57BLKS db/db mice [2]; 30 mg/kg group, Day −5, before first application): 10.1 g per mouse
Daily water intake on the days of application (C57BLKS db/db mice [2]; 30 mg/kg oral once daily, Day 1): 2.3 g per mouse
Daily water intake on the days of application (C57BLKS db/db mice [2]; 30 mg/kg oral once daily, Day 2): 2.4 g per mouse
Daily water intake on the days of application (C57BLKS db/db mice [2]; 30 mg/kg oral once daily, Day 4): 2.6 g per mouse
Daily water intake on the days of application (C57BLKS db/db mice [2]; 30 mg/kg oral once daily, Day 5): 3.0 g per mouse
Daily water intake on the days of application (C57BLKS db/db mice [2]; 30 mg/kg oral once daily, Day 6): 2.9 g per mouse
Daily water intake on the days of application (C57BLKS db/db mice [2]; 30 mg/kg oral once daily, Day 7): 3.3 g per mouse
Daily water intake on the days of application (C57BLKS db/db mice [2]; 30 mg/kg oral once daily, Day 8): 2.5 g per mouse
Effect on increased daily water intake (summary in words) (C57BLKS db/db mice [2]; [3]): reduced
